The values that follow come from patent US20070148660A1, “Treatment of maladaptive substance use with H-ras antagonists” (The Regents of the University of California, priority 2005, published 2007).

One assay concerns Ras. In words: Ras activity assay (Raf-1-Ras binding domain GST-agarose), hippocampal slices. The class given is cell-based, mouse. The procedure:
The treated hippocampal homogenates (250 μg) were incubated with […] of Raf-1-Ras binding domain GST-agarose for 45 min at 4° C. while rotating, as per manufacturer's instructions. […] Results were quantified by NIH Image 1.61.

Another assay has as its system NMDAR. In words: NMDAR-mediated EPSCs, whole-cell voltage clamp, hippocampal CA1. The class given is cell-based, mouse. The settings on record: for effect on the ethanol-induced inhibition of NMDAR-mediated EPSCs: inhibitor applied before ethanol, hippocampal slices. The procedure:
Electrophysiological recordings were performed in C57BL/6J mice ranging from P21 to P26. Briefly, mice were anesthetized with halothane and decapitated as per University of California, San Francisco animal care guidelines. Horizontal sections of the hippocampus ([…]) were prepared with a vibratome (Leica, Nussloch, Germany). Slices were placed in a holding chamber and allowed to recover for at least 1 hr before being placed in the recording chamber and superfused with aCSF saturated with 95% O2/5% CO2 and containing (in mM): 119 NaCl, 1.6 KCl, 1.0 NaH2PO4, 1.3 MgCl2 (for EPSCs) or 0.01 MgCl2 (for field excitatory postsynaptic potentials (fEPSPs)), 2.5 CaCl2, 26.2 NaHCO3 and 11 glucose. Picrotoxin (100 μM) was added to block gamma-aminobutyric acid-A (GABAA) receptor-mediated inhibitory synaptic transmission, and CNQX (for EPSCs) or NBQX (for fEPSPs) (10 μM) was added to block α-amino-3-hydroxy-5-methyl-4-isoxalepropionate (AMPA)/Kainate receptors. Cells were visualized using infrared differential interference contrast video microscopy.
Whole-cell voltage clamp-recordings were made using an Axopatch ID or a MultiClamp 700A amplifier (Axon Instruments, Union City, Calif.). Electrodes (3.5-5.0 MΩ) contained (in mM): 120 Cesium methansulfonate, 20 HEPES, 0.4 EGTA, 2.8 NaCl, 5 TEA-Cl, 2.5 MgATP, and 0.25 NaGTP (pH 7.2-7.3), buffer at 270-285 mOsm. Series resistance (10-30 MΩ) and input resistance were monitored on-line with a 4 mV depolarizing step (50 ms) given just after every afferent stimulus. Recordings from the CA1 region of the hippocampus were obtained with a bipolar stimulating electrode that was placed 100-300 μm rostral to the recording electrode and was used to stimulate excitatory afferents at 0.1 Hz. Neurons were voltage-clamped at +40 mV to evoke NMDAR-mediated EPSCs. At this potential, NMDARs have a maximal open probability and the Mg^2+ block is removed. EPSCs were filtered at 2 kHz, digitized at 5-10 kHz and collected on-line using Igor Pro software (Wavemetrics, Lake Oswego, Oreg.) or pClamp 9 (Axon Instruments, Union City, Calif.). NMDAR example traces were constructed by averaging 20 EPSCs (200 sec) elicited at +40 mV during baseline, ethanol application, drug application or drug application with ethanol. To calculate the decay time (τ), Igor Pro software was used to fit exponential decay curves to averaged NMDAR-mediated EPSCs using the formula: y=A1exp(−invTau1*x)+A2exp(−invTau2X).

The target of assay [1] is Raf-1-Ras binding domain GST agarose (UniProt P04049). In words: pull-down of hippocampal homogenates with Raf-1-Ras binding domain GST-agarose, Western blot with pan anti-Ras; ratio of Ras-GTP over total Ras, normalized to the control.

Take `[Cl-].[K+]` [KCl]: in the assay on Ras (50 mM KCl, 5 min, hippocampal slices), the Ras activity entry was “increases Ras activity”.

As to `C[C@H](NC(c1cccc2[nH]c(=O)c(=O)[nH]c12)P(=O)(O)O)c1ccc(Br)cc1` (some centres unmarked) [NVP-AAM077, reference compound], the “decrease of NMDAR EPSCs” value in the assay with NMDAR (NVP-AAM077 0.4 μM, n=6) was 55±4%. Also, in the assay with NMDAR (NVP-AAM077 application, data not shown), the “NMDAR-mediated EPSCs in slices first treated with ethanol and ifenprodil” value is “no effect”. In addition, the weighted decay time in the assay with NMDAR (in the presence of NVP-AM077 (0.4 μM), n=6, baseline 43.0±2.1 ms) came out at 68.7 ± 9.4 ms. In the assay with NMDAR, the “effect on the ethanol-induced inhibition of NMDAR-mediated EPSCs” value is “occluded”.

As to `CC(C(O)c1ccc(O)cc1)N1CCC(Cc2ccccc2)CC1` (centres unmarked) [ifenprodil, reference compound], the “decrease of NMDAR EPSCs” value with NMDAR (ifenprodil 3 μM, n=5) is 37+5%. For the same compound, the “NMDAR-mediated EPSCs in slices treated with both ethanol and NVP-AAM077” value with NMDAR (ifenprodil application, data not shown) is given as “further inhibition”. For the same compound, the weighted decay time with NMDAR (in the presence of ifenprodil (3 μM), n=7, baseline 41.2±3.4 ms) amounted to 34.7 ± 4.5 ms. In the assay on NMDAR, the “effect on the ethanol-induced inhibition of NMDAR-mediated EPSCs” value is “did not”.

As to “GTP-bound active Ras, endogenous in mouse hippocampal slices (from UniProt Q61411 1-186)”, the fold increase of Ras-GTP pulled down, ethanol-treated over control slices in assay [1] was 2 fold.

As to “Tat-peptide: Tat-peptide (YGRKKRRQRRR: SEQ ID NO:2) synthesized by Syn Pep, used as a control”, the “effect on ethanol-mediated increase in endogenous Ras activity” value with Ras (pre-incubation 2 hrs (Tat-H-Ras DN printed 2 mM, Tat-peptide 2 μM), then 100 mM ethanol 15 min) is listed as “did not”.
